# According to patent US20240270740A1, “INHIBITORS OF CYCLIC GMP-AMP SYNTHASE AND USES THEREOF” (Ventus Therapeutics U.S., Inc., priority 2022, published 2024):
# Tests used:
# [1] = target: T1, hcGAS (Homo sapiens, UniProt Q8N884); assay: hcGAS Kinase-Glo assay (ATP depletion); assay type: biochemical; settings: for IC50: 40 nM hcGAS, 100 μM ATP, 100 μM GTP, 25 nM dsDNA, 3 h incubation
# Procedure, shortened: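 Human cGAS activity measured indirectly as ATP depletion by Kinase-Glo luminescence, following the Lama et al. method with modified conditions. Output is IC50, binned into potency categories.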
# [2] = target: T1, hcGAS; assay: hcGAS LCMS assay (direct measurement of cGAMP production); assay type: biochemical; settings: for IC50: 0.5 nM hcGAS, 100 μM ATP, 100 μM GTP, 25 nM dsDNA, 4 h incubation
# Procedure, shortened: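 Direct LC/MS readout of cGAMP formed: 4-h enzyme–substrate incubation with compound, stopped by acetonitrile/water quench carrying isotope-labelled cGAMP (0.15 mM) as standard. Potency reported as IC50 ranges.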
# [3] = compared with Compound 103 (without —CH2OCH3)
# T1 sequence (Q8N884 whole entry): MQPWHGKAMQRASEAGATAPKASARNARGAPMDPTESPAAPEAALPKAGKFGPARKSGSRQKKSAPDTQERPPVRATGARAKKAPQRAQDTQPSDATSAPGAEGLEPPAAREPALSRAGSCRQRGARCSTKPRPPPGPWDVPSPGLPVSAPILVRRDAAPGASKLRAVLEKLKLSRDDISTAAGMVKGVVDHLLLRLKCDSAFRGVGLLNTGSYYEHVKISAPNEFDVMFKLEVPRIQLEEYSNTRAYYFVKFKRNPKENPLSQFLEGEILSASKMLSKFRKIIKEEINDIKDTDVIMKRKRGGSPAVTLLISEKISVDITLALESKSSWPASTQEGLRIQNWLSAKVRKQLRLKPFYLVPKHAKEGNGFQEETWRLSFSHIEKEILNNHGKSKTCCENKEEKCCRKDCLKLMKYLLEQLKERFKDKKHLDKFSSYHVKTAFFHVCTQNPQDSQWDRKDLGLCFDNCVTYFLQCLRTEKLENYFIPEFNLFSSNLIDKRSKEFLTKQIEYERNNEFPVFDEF
IC50 [1] [nM],IC50 [2] [nM],"inhibitory activity in hcGAS Kinase glo assay [1, 3]","inhibitory activity in hcGAS LCMS assay [2, 3]",Compound
10 to 30,5 to 20,,,"COc1c(N[C@H]2CCCC[C@H]2O)cc(C(=O)Nc2nnc(-n3nccc3C)s2)oc1=O (racemic) [Rac-189, 4-(((1S,2R)-2-hydroxycyclohexyl)amino)-3-methoxy-N-(5-(5-methyl-1H-pyrazol-1-yl)-1,3,4-thiadiazol-2-yl)-2-oxo-2H-pyran-6-carboxamide]"
10 to 30,5 to 20,,,"COC[C@@H]1CCN(c2cc(C(=O)Nc3nnc(-n4nccc4C)s3)oc(=O)c2OC)C1 [Compound 1, (R)-3-methoxy-4-(3-(methoxymethyl)pyrrolidin-1-yl)-N-(5-(5-methyl-1H-pyrazol-1-yl)-1,3,4-thiadiazol-2-yl)-2-oxo-2H-pyran-6-carboxamide]"
10 to 30,5 to 20,,,"COc1c(N2CC[C@@H](S(C)(=O)=O)C2)cc(C(=O)Nc2nnc(-n3nccc3C)s2)oc1=O [Compound 8, (R)-3-methoxy-N-(5-(5-methyl-1H-pyrazol-1-yl)-1,3,4-thiadiazol-2-yl)-4-(3-(methylsulfonyl)pyrrolidin-1-yl)-2-oxo-2H-pyran-6-carboxamide]"
10 to 30,5 to 20,,,"COCC(COC)Nc1cc(C(=O)Nc2nnc(-n3nccc3C)s2)oc(=O)c1OC [Compound 10, 4-((1,3-dimethoxypropan-2-yl)amino)-3-methoxy-N-(5-(5-methyl-1H-pyrazol-1-yl)-1,3,4-thiadiazol-2-yl)-2-oxo-2H-pyran-6-carboxamide]"
10 to 30,20 to 60,,,"COc1c(N[C@H]2CC[C@H](OC)CC2)cc(C(=O)Nc2nnc(-n3nccc3C)s2)oc1=O [Compound 11, 3-methoxy-4-(((1,4-trans)-4-methoxycyclohexyl)amino)-N-(5-(5-methyl-1H-pyrazol-1-yl)-1,3,4-thiadiazol-2-yl)-2-oxo-2H-pyran-6-carboxamide]"
10 to 30,5 to 20,,,"COc1c(N2CC[C@@H](O)C2)cc(C(=O)Nc2nnc(-n3nccc3C)s2)oc1=O [Compound 30, (R)-4-(3-hydroxypyrrolidin-1-yl)-3-methoxy-N-(5-(5-methyl-1H-pyrazol-1-yl)-1,3,4-thiadiazol-2-yl)-2-oxo-2H-pyran-6-carboxamide]"
10 to 30,5 to 20,,,"COc1c(N2CC[C@@H](OC)C2)cc(C(=O)Nc2nnc(-n3nccc3C)s2)oc1=O [Compound 31, (R)-5-methoxy-4-(3-methoxypyrrolidin-1-yl)-N-(5-(5-methyl-1H-pyrazol-1-yl)-1,3,4-thiadiazol-2-yl)-6-oxo-6H-pyran-2-carboxamide]"
10 to 30,20 to 60,,,"COc1c(NCC(C)(C)O)cc(C(=O)Nc2nnc(-n3nccc3C)s2)oc1=O [Compound 33, 4-(2-hydroxy-2-methylpropylamino)-5-methoxy-N-(5-(5-methyl-1H-pyrazol-1-yl)-1,3,4-thiadiazol-2-yl)-6-oxo-6H-pyran-2-carboxamide]"
10 to 30,5 to 20,,,"COC[C@H]1CCCN1c1cc(C(=O)Nc2nnc(-n3nccc3C)s2)oc(=O)c1OC [Compound 38, (R)-3-methoxy-4-(2-(methoxymethyl)pyrrolidin-1-yl)-N-(5-(5-methyl-1H-pyrazol-1-yl)-1,3,4-thiadiazol-2-yl)-2-oxo-2H-pyran-6-carboxamide]"
< 10,< 5,,,"COc1c(NC23CC(C2)C3)cc(C(=O)Nc2nnc(-c3c(Cl)ccn3C)s2)oc1=O [Compound 41, 4-{bicyclo[1.1.1]pentan-1-ylamino}-N-[5-(3-chloro-1-methylpyrrol-2-yl)-1,3,4-thiadiazol-2-yl]-5-methoxy-6-oxopyran-2-carboxamide]"
< 10,< 5,,,"COc1c(N2CCCC2=O)cc(C(=O)Nc2nnc(-n3nccc3C)s2)oc1=O [Compound 42, 3-methoxy-N-(5-(5-methyl-1H-pyrazol-1-yl)-1,3,4-thiadiazol-2-yl)-2-oxo-4-(2-oxopyrrolidin-1-yl)-2H-pyran-6-carboxamide]"
10 to 30,5 to 20,,,"COc1c(N2CC[C@H](OC)C2)cc(C(=O)Nc2nnc(-n3nccc3C)s2)oc1=O [Compound 57, (S)-3-methoxy-4-(3-methoxypyrrolidin-1-yl)-N-(5-(5-methyl-1H-pyrazol-1-yl)-1,3,4-thiadiazol-2-yl)-2-oxo-2H-pyran-6-carboxamide]"
10 to 30,5 to 20,,,"COc1c(N2C[C@H](OC)[C@H](OC)C2)cc(C(=O)Nc2nnc(-n3nccc3C)s2)oc1=O [Compound 59, 4-((3S,4R)-3,4-dimethoxypyrrolidin-1-yl)-3-methoxy-N-R(5-(5-methyl-1H-pyrazol-1-yl)-1,3,4-thiadiazol-2-yl)-2-oxo-2H-pyran-6-carboxamide]"
10 to 30,5 to 20,,,"COc1c(N2CC[C@H](S(C)(=O)=O)C2)cc(C(=O)Nc2nnc(-n3nccc3C)s2)oc1=O [Compound 60, (S)-3-methoxy-N-(5-(5-methyl-1H-pyrazol-1-yl)-1,3,4-thiadiazol-2-yl)-4-(3-(methylsulfonyl)pyrrolidin-1-yl)-2-oxo-2H-pyran-6-carboxamide]"
10 to 30,5 to 20,,,"COc1c(N[C@H]2CCS(=O)(=O)C2)cc(C(=O)Nc2nnc(-n3nccc3C)s2)oc1=O [Compound 62, (S)-4-((1,1-dioxidotetrahydrothiophen-3-yl)amino)-3-methoxy-N-(5-(5-methyl-1H-pyrazol-1-yl)-1,3,4-thiadiazol-2-yl)-2-oxo-2H-pyran-6-carboxamide]"
30 to 100,20 to 60,,,"COC[C@H](C)Nc1cc(C(=O)Nc2nnc(-n3nccc3C)s2)oc(=O)c1OC [Compound 64, (S)-3-methoxy-4-((1-methoxypropan-2-yl)amino)-N-(5-(5-methyl-1H-pyrazol-1-yl)-1,3,4-thiadiazol-2-yl)-2-oxo-2H-pyran-6-carboxamide]"
10 to 30,5 to 20,,,"COc1c(NC[C@@H]2CCCO2)cc(C(=O)Nc2nnc(-n3nccc3C)s2)oc1=O [Compound 66, (S)-3-methoxy-N-(5-(5-methyl-1H-pyrazol-1-yl)-1,3,4-thiadiazol-2-yl)-2-oxo-4-(((tetrahydrofuran-2-yl)methyl)amino)-2H-pyran-6-carboxamide]"
30 to 100,5 to 20,,,"COCCNc1cc(C(=O)Nc2nnc(-n3nccc3C)s2)oc(=O)c1OC [Compound 75, 3-methoxy-4-((2-methoxyethyl)amino)-N-(5-(5-methyl-1H-pyrazol-1-yl)-1,3,4-thiadiazol-2-yl)-2-oxo-2H-pyran-6-carboxamide]"
10 to 30,5 to 20,,,"COCC(C)(C)Nc1cc(C(=O)Nc2nnc(-n3nccc3C)s2)oc(=O)c1OC [Compound 76, 3-methoxy-4-((1-methoxy-2-methylpropan-2-yl)amino)-N-(5-(5-methyl-1H-pyrazol-1-yl)-1,3,4-thiadiazol-2-yl)-2-oxo-2H-pyran-6-carboxamide]"
30 to 100,5 to 20,,,"COc1c(NCc2ccccc2)cc(C(=O)Nc2nnc(-n3nccc3C)s2)oc1=O [Compound 103, 4-(benzylamino)-3-methoxy-N-(5-(5-methyl-1H-pyrazol-1-yl)-1,3,4-thiadiazol-2-yl)-2-oxo-2H-pyran-6-carboxamide]"
30 to 100,20 to 60,,,"COc1c(N(C)C)cc(C(=O)Nc2nnc(-n3nccc3C)s2)oc1=O [Compound 106, 4-(dimethylamino)-3-methoxy-N-(5-(5-methyl-1H-pyrazol-1-yl)-1,3,4-thiadiazol-2-yl)-2-oxo-2H-pyran-6-carboxamide]"
10 to 30,5 to 20,,,"COc1c(N2CC[C@H](O)C2)cc(C(=O)Nc2nnc(-n3nccc3C)s2)oc1=O [Compound 110, (S)-4-(3-hydroxypyrrolidin-1-yl)-3-methoxy-N-(5-(5-methyl-1H-pyrazol-1-yl)-1,3,4-thiadiazol-2-yl)-2-oxo-2H-pyran-6-carboxamide]"
10 to 30,5 to 20,,,"COc1c(NC23CC(OC)(C2)C3)cc(C(=O)Nc2nnc(-n3nccc3C)s2)oc1=O [Compound 111, 3-methoxy-4-((3-methoxybicyclo[1.1.1]pentan-1-yl)amino)-N-(5-(5-methyl-1H-pyrazol-1-yl)-1,3,4-thiadiazol-2-yl)-2-oxo-2H-pyran-6-carboxamide]"
< 10,< 5,,,"COc1c(N[C@@H]2CCC[C@@H]2O)cc(C(=O)Nc2nnc(-n3nccc3C)s2)oc1=O [Compound 112, 4-(((1R,2S)-2-hydroxycyclopentyl)amino)-3-methoxy-N-(5-(5-methyl-1H-pyrazol-1-yl)-1,3,4-thiadiazol-2-yl)-2-oxo-2H-pyran-6-carboxamide]"
< 10,< 5,improved inhibitory activity,improved inhibitory activity,"COC[C@H](Nc1cc(C(=O)Nc2nnc(-n3nccc3C)s2)oc(=O)c1OC)c1ccccc1 [Compound 114, (R)-3-methoxy-4-((2-methoxy-1-phenylethyl)amino)-N-(5-(5-methyl-1H-pyrazol-1-yl)-1,3,4-thiadiazol-2-yl)-2-oxo-2H-pyran-6-carboxamide]"
10 to 30,5 to 20,,,"COc1c(NC23CC(CC#N)(C2)C3)cc(C(=O)Nc2nnc(-n3nccc3C)s2)oc1=O [Compound 116, 4-((3-(cyanomethyl)bicyclo[1.1.1]pentan-1-yl)amino)-3-methoxy-N-(5-(5-methyl-1H-pyrazol-1-yl)-1,3,4-thiadiazol-2-yl)-2-oxo-2H-pyran-6-carboxamide]"
10 to 30,5 to 20,,,"COc1c(NC23CC(C(C)(C)O)(C2)C3)cc(C(=O)Nc2nnc(-n3nccc3C)s2)oc1=O [Compound 117, 4-((3-(2-hydroxypropan-2-yl)bicyclo[1.1.1]pentan-1-yl)amino)-3-methoxy-N-(5-(5-methyl-1H-pyrazol-1-yl)-1,3,4-thiadiazol-2-yl)-2-oxo-2H-pyran-6-carboxamide]"
